Positions count from the first letter of the chain named. Like-named read-outs stand apart in the source and are kept apart here.
Assays:
MCT2-embigin [1] = target: T1, MCT2-embigin (Homo sapiens, UniProt O60669); test: pyruvate uptake, pyronicSF fluorescence, transfected HEK-293T cells; format: cell-based
T1 construct: gene SLC16A7; fusion: embigin C-terminus joined by GGSG linker to MCT2 N-terminus, C-terminal twin-Strep tag; HEK-293F, DDM then GDN, heterodimer; in transport tests expressed as fusion in HEK-293T cells; with Embigin
T1 sequence (O60669 1-478): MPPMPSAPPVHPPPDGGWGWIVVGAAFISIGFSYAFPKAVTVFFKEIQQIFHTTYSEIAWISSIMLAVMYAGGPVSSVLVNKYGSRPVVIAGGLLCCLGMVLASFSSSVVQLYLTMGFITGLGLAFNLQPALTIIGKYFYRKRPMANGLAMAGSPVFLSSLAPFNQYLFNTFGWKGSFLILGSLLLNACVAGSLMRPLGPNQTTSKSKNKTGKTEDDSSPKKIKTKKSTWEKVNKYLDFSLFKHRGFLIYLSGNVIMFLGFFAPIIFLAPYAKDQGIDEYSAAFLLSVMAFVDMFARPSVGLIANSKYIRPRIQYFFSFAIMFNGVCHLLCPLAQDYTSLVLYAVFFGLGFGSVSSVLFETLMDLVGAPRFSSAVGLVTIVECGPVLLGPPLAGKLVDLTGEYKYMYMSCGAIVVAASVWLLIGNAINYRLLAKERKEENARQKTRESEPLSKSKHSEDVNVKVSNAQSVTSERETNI
T1 sequence (Q6PCB8 33-327 partner): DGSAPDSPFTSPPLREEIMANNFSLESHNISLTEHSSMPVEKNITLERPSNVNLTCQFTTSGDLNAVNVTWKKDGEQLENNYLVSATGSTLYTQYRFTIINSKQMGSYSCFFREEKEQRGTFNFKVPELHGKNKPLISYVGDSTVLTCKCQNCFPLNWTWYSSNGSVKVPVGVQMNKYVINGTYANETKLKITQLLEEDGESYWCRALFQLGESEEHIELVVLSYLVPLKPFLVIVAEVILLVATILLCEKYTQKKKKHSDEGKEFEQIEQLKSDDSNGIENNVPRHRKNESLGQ

MCT2-embigin [2] = target: T2, MCT2-embigin (Homo sapiens, UniProt O60669, F262A); test: bio-layer interferometry, SSA biosensor, […] fit; format: binding; details: pH 7.4, 25 °C
T2 construct: gene SLC16A7; fusion: embigin C-terminus joined by GGSG linker to MCT2 N-terminus, C-terminal twin-Strep tag; HEK-293F, DDM then GDN, heterodimer; in transport tests expressed as fusion in HEK-293T cells; with Embigin
T2 sequence (O60669 1-478 F262A): T1 sequence (O60669 1-478) with F262A
T2 sequence (Q6PCB8 33-327 partner): T1 sequence (Q6PCB8 33-327 partner)

MCT2-embigin [3] = target: T1, MCT2-embigin; test: bio-layer interferometry, SSA biosensor, […] fit; format: binding; details: read-out: affinity (KD)
MCT2-embigin [4] = target: T3, MCT2-embigin (Homo sapiens, UniProt O60669, Y34A); test: bio-layer interferometry, SSA biosensor, […] fit; format: binding; details: pH 7.4, 25 °C
T3 construct: gene SLC16A7; fusion: embigin C-terminus joined by GGSG linker to MCT2 N-terminus, C-terminal twin-Strep tag; HEK-293F, DDM then GDN, heterodimer; in transport tests expressed as fusion in HEK-293T cells; with Embigin
T3 sequence (O60669 1-478 Y34A): T1 sequence (O60669 1-478) with Y34A
T3 sequence (Q6PCB8 33-327 partner): T1 sequence (Q6PCB8 33-327 partner)

MCT1-Basigin-2 = tested on: T4, MCT1-Basigin-2; test: pyruvate uptake, pyronicSF fluorescence, transfected HEK-293T cells; format: cell-based, Homo sapiens; details: 5 mM pyruvate; 30 min pre-incubation
T4 construct: gene SLC16A1; fusion MCT1-Basigin-2; expressed in HEK-293T cells with pyronicSF for transport; with Basigin

MCT2-embigin [5] = target: T5, MCT2-embigin (Homo sapiens, UniProt O60669, F351A); test: bio-layer interferometry, SSA biosensor, […] fit; format: binding
T5 construct: gene SLC16A7; fusion: embigin C-terminus joined by GGSG linker to MCT2 N-terminus, C-terminal twin-Strep tag; HEK-293F, DDM then GDN, heterodimer; in transport tests expressed as fusion in HEK-293T cells; with Embigin
T5 sequence (O60669 1-478 F351A): T1 sequence (O60669 1-478) with F351A
T5 sequence (Q6PCB8 33-327 partner): T1 sequence (Q6PCB8 33-327 partner)

MCT2-embigin [6] = target: T2, MCT2-embigin; test: bio-layer interferometry, SSA biosensor, […] fit; format: binding
MCT2-embigin [7] = target: T3, MCT2-embigin; test: bio-layer interferometry, SSA biosensor, […] fit; format: binding
MCT2-embigin [8] = target: T1, MCT2-embigin; test: bio-layer interferometry, SSA biosensor, […] fit

IC50 (MCT2-embigin [1]) [µM]	KD (MCT2-embigin [2])	Kd (MCT2-embigin [3]) [µM]	IC50 (MCT1-Basigin-2) [µM]	Kd (MCT2-embigin [5]) [µM]	Kd (MCT2-embigin [6]) [µM]	Kd (MCT2-embigin [7]) [µM]	Kd (MCT2-embigin [8]) [µM]	SMILES	KD (MCT2-embigin [4])
0.981	MCT2(F262A)-embigin (B)	0.6	–	–	–	–	–	Cc1n[nH]c(C)c1Cc1sc2c(c1C(=O)N1C[C@H](O)CO1)c(=O)n(C)c(=O)n2CC(C)C [AR-C155858]	The binding kinetics of AR-C155858 bound to MCT2(Y34A)-embigin (A)
–	–	–	1.24	–	–	–	–	Cc1[nH]nc(C(F)(F)F)c1Cc1sc2c(c1C(=O)N1C[C@](C)(O)CO1)c(=O)n(C)c(=O)n2C(C)C [AZD3965]	–
2.71	–	–	2.6	211	33.2	13.8	0.6	Cc1cc(Nc2ncnc3ccc(NC4=NC(C)(C)CO4)cc23)ccc1Oc1ccn2ncnc2c1 [Tucatinib]	–

Reference: article PMC12894981, “Structure-guided screening identifies Tucatinib as dual inhibitor for MCT1/2” (EMBO Reports, 2025)
